Source: ChEMBL document CHEMBL4680080 (J Med Chem, 2016)
In brackets after ≈: the same amount, converted by molar mass.

Experiments:
[1] = Stability in bile of fistula Wistar-Han rat model assessed as drug recovery of unmodified compound at 60 umol/kg, iv by HPLC-ES-MS/MS analysis; type: ADME, organism-based; settings: at 60 µmol/kg, read-out: Drug recovery
physchem = settings: water
[2] = Stability in fistula Wistar-Han rat model assessed as drug stability in intestinal bacteria at 60 umol/kg, iv by HPLC-ES-MS/MS analysis; type: ADME, organism-based, Intestine; settings: in vivo, at 60 µmol/kg
[3] = Drug metabolism in liver of fistula Wistar-Han rat model assessed as drug recovery of taurine conjugate at 60 umol/kg, iv by HPLC-ES-MS/MS analysis; type: ADME, organism-based; settings: in vivo, dose 60 µmol/kg
[4] = Drug metabolism in bile of fistula Wistar-Han rat model assessed as taurine conjugate formation at 60 umol/kg, iv by HPLC-ES-MS/MS analysis; type: ADME, organism-based; settings: in vivo, dose 60 µmol/kg

CC[C@H]1[C@@H](O)[C@@H]2[C@H]([C@@H](O)C[C@]3(C)[C@@H]([C@H](C)CCC(=O)O)CC[C@@H]23)[C@@]2(C)CC[C@@H](O)C[C@@H]12
dose excreted [1]: 50%
solubility (physchem): 150 µM (≈ 65.5 µg/mL)
Stabilty [2]: Stable
Drug metabolism [3]: Metabolite_Notdetected

CC[C@H]1[C@@H](O)[C@@H]2[C@H](CC[C@]3(C)[C@@H]([C@H](C)CCC(=O)O)CC[C@@H]23)[C@@]2(C)CC[C@@H](O)C[C@@H]12 [OBETICHOLIC ACID]
solubility (physchem): 9 µM (≈ 3.79 µg/mL)
Drug metabolism [4]: Metabolite_Detected

C[C@H](CCC(=O)O)[C@H]1CC[C@H]2[C@@H]3[C@@H](O)C[C@@H]4C[C@H](O)CC[C@]4(C)[C@H]3CC[C@]12C [URSODIOL]
solubility (physchem): 7 µM (≈ 2.75 µg/mL)
Drug metabolism [4]: Metabolite_Detected

C[C@H](CCC(=O)O)[C@H]1CC[C@H]2[C@@H]3[C@H](O)C[C@@H]4C[C@H](O)CC[C@]4(C)[C@H]3CC[C@]12C [CHENODIOL]
Drug metabolism [4]: Metabolite_Detected

C[C@H](CCC(=O)O)[C@H]1CC[C@H]2[C@@H]3[C@H](O)C[C@@H]4C[C@H](O)CC[C@]4(C)[C@H]3C[C@H](O)[C@]12C [CHOLIC ACID]
dose excreted [1]: 10%
